The assay addresses T1, FtsZ (Acinetobacter baumannii, UniProt A0ABX6CKC9).
T1 construct: full-length (1176 bp ftsZ gene), SUMO tag removed
In words: PK/LDH coupled GTPase assay on purified FtsZ; sedimentation polymerization assay. In kind it is biochemical.

SMILES strings stand for the structures.

T1 sequence (A0ABX6CKC9 entry or part of it): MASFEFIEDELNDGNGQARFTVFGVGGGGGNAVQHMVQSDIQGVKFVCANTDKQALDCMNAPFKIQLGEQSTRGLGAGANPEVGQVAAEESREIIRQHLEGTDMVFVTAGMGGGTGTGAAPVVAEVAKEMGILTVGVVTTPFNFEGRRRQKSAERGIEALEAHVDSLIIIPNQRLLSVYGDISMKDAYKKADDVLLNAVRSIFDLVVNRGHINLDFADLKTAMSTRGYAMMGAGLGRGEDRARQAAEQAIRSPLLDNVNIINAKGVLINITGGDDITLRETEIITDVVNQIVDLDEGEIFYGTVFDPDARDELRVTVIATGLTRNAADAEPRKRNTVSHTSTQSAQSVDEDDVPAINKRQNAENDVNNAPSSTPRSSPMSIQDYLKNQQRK

Turning to `COC(=O)CSc1ccc2nsnc2c1[N+](=O)[O-]` [C109, methyl [(4-nitro-2,1,3-benzothiadiazol-5-yl)thio]acetate], half-maximal inhibition (IC50) required 11.8 µM.

(Values after publication PMC9687021, “Bactericidal and Anti-Biofilm Activity of the FtsZ Inhibitor C109 against Acinetobacter baumannii” (Antibiotics, 2022).)
